The text below walks through data of US4698339A, “Carbapenems, their production and use” (Takeda Chemical Industries, Ltd., priority 1983, dated 1987).

Converted amounts (≈) assume the structure as drawn.

The subject of one data set is Klebsiella pneumoniae DT. The data set is described as follows: MIC by agar dilution method, Klebsiella pneumoniae DT. The format is cell-based. The note with it: Trypticase soy agar, about 10^8 CFU/ml, 18 hours at 37° C., read-out: MIC (minimal inhibitory concentration). On the procedure:
(§1) Several examples of the compound (I) as obtained in Examples were tested for MIC (mcg/ml) by the following method.
(§2) The MIC of each test compound was determined by the agar dilution method. Thus, 1.0 ml of each aqueous serial dilution of the test compound was poured into a petri dish and then […] of Trypticase soy agar was poured into the dish followed by intimate mixing. The mixed agar plate was smeared with the suspension of a test organism (about 10^8 CFU/ml).
(4) Klebsiella pneumoniae DT
A general note: In agar dilution the substance is mixed into plates at graded concentrations.

For another data set, the system named is Escherichia coli 0-111. The data set is described as follows: MIC by agar dilution method, Escherichia coli 0-111. The format is cell-based. Particulars: 0111, Trypticase soy agar, about 10^8 CFU/ml, 18 hours at 37° C., read-out: MIC (minimal inhibitory concentration). On the procedure: as §1, §2
(2) Escherichia coli 0-111

The subject of data set [1] is Staphylococcus aureus FDA 209P. As to the kind of experiment: MIC by agar dilution method, Staphylococcus aureus FDA 209P. Format: cell-based. Particulars: FDA209P, Trypticase soy agar, about 10^8 CFU/ml, 18 hours at 37° C., read-out: MIC (minimal inhibitory concentration). On the procedure:
as §1, §2
(1) Staphylococcus aureus FDA 209P

Data set [2] can be described thus: stability against a mouse kidney homogenate. Format: in vitro ADME. The note with it: 0.05M phosphate buffer (pH 6.9), 30° C., test compound solution 1 mg/ml mixed 1:1, read-out: Half life (T1/2). Here is the method:
Several examples of the objective compound (I) as obtained in Examples were tested for stability against a mouse Kidney homogenate by the following method.
A kidney homogenate was prepared by grinding down 50 g of the mouse kidney in 200 ml of cooled 0.05M phosphate buffer (pH 6.9) and stored at -20° C. A 200 μl portion of this mouse kidney homogenate and 200 μl of an aqueous solution of the test compound (1 mg/ml) were intimately mixed and kept at 30° C. At 10-minute intervals, a 25 μl portion of the mixture was taken and added to 25 μl of ice bath-cooled methanol to thereby terminate the reaction between renal enzymes and the test compound. The amount of the remaining test compound was determined by measuring the inhibitory action against β-lactamaseproduced by Proteus vulgaris GN4413 or Enterobacter cloacae TN1282 by the method described in Journal of Antibiotics, 34, 212-217 (1981).

In data set [3] the test system is Citrobacter freundii IFO 12681. The data set is described as follows: MIC by agar dilution method, Citrobacter freundii IFO 12681. The format is cell-based. The note with it: IFO12681, Trypticase soy agar, about 10^8 CFU/ml, 18 hours at 37° C., read-out: MIC (minimal inhibitory concentration). Here is the method: as §1, §2
(3) Citrobacter freundii IFO 12681

As to `CC(=O)NCCSC1=C(C(=O)O)N2C(=O)[C@@H](C(O)CS(C)(=O)=O)[C@H]2C1` (stereo partly drawn) [12 (b), sodium 5,6-cis-3-(2-acetamidoethylthio)-6-(1-hydroxy-2-methylsulfonylethyl)-7-oxo-1-azabicyclo[3.2.0]hept-2-ene-2-carboxylate], the MIC stood at 1.56 µg/mL with Klebsiella pneumoniae DT, 0.39 µg/mL in the data set on Escherichia coli 0-111, 1.56 µg/mL in data set [1] and 3.13 µg/mL in data set [3]. In addition, in data set [2], the half-life was above 2 h.

Consider `CC(=O)NCCSC1=C(C(=O)O)N2C(=O)C(C(O)CS(=O)(=O)c3ccccc3)C2C1` (stereo not drawn) [20 (b)], for which the MIC in the data set with Klebsiella pneumoniae DT was 3.13 µg/mL (≈ 6.89 µM); in the data set with Escherichia coli 0-111, 0.39 µg/mL (≈ 0.858 µM); in data set [1], 1.59 µg/mL (≈ 3.5 µM); in data set [3] it was 1.56 µg/mL (≈ 3.43 µM). Further, in data set [2], the half-life is above 2 h.

For the compound `CC(=O)N/C=C/SC1=C(C(=O)O)N2C(=O)[C@@H](C3(O)CCS(=O)(=O)C3)[C@H]2C1` (stereo partly drawn) [13 (b), sodium 5,6-cis-3-[(E)-2-acetamidovinylthio]-6-(1-hydroxy-3-thiacyclopentyl-3,3-dioxido)-7-oxo-1-azabicyclo[3.2.0]hept-2-ene-2-carboxylate], the MIC in the data set on Klebsiella pneumoniae DT amounted to 0.78 µg/mL; in the data set with Escherichia coli 0-111 it was 0.39 µg/mL; in data set [1] it was 1.56 µg/mL; in data set [3] it was 1.56 µg/mL. Besides, in data set [2], the half-life is above 2 h.

In the case of `CCS(=O)(=O)CC(O)C1C(=O)N2C(C(=O)O)=C(SCCNC(C)=O)CC12` (stereo not drawn) [15 (b)], the MIC in the data set on Klebsiella pneumoniae DT is 3.13 µg/mL (≈ 7.7 µM); in the data set on Escherichia coli 0-111, 0.2 µg/mL (≈ 0.492 µM); in data set [1], 6.25 µg/mL (≈ 15.4 µM); in data set [3], 3.13 µg/mL (≈ 7.7 µM). The half-life in data set [2] was above 2 h.

As to `O=C(O)C1=C(Sc2ncccn2)C[C@@H]2[C@H](C3(O)CCS(=O)(=O)C3)C(=O)N12` (stereo partly drawn) [2 (b), sodium 5,6-cis-3-(2-pyrimidinylthio)-6-(1-hydroxy-3-thiacyclopentyl-3,3-dioxido)-7-oxo-1-azabicyclo[3.2.0]hept-2-ene-2-carboxylate], the MIC in the data set with Klebsiella pneumoniae DT was 6.25 µg/mL; in the data set with Escherichia coli 0-111, 3.13 µg/mL; in data set [1], 0.78 µg/mL; in data set [3], 6.25 µg/mL. Besides, the half-life in data set [2] was above 2 h.

As to `CC(=O)NCCSC1=C(C(=O)O)N2C(=O)[C@@H](C3(O)CCS(=O)(=O)C3)[C@H]2C1` (stereo partly drawn) [Example 1 (c), Sodium 5,6-cis-3-(2-acetamidoethylthio)-6-(1-hydroxy-3-thiacyclopentyl-3,3-dioxido)-7-oxo-1-azabicyclo-[3.2.0]hept-2-ene-2-carboxylate], the MIC with Klebsiella pneumoniae DT amounted to 3.13 µg/mL; in the data set with Escherichia coli 0-111, 0.39 µg/mL; in data set [1], 3.13 µg/mL; in data set [3], 3.13 µg/mL. In addition, the half-life in data set [2] is above 2 h.
